Data from US10098852B2 (LAUNX BIOMEDICAL CO., LTD., priority 2014, dated 2018).
Where “and” joins values, the source holds several entries; their conditions need not be identical. Identical values can stand only once. Like-named read-outs stand apart in the source and are kept apart here.

Tests used:
[1] = tested on: T24 (bladder cancer cell line); experiment: Cell viability analysis (WST-1), bladder cancer cell line T24; format: cell-based; details: T24, 10 μM
Method: (§1) The cell numbers were counted and reseed as 2×10^6 in cell culture plate/flask. Then, the culture medium was added to a volume of 10 ml, and the cells were cultured for 2-3 days. Then, the cells were suspended for loading into 96-well plates. The cell number was 3000/well and the volume of the culture medium was 100 μl each well.
(§2) Removing the original culture medium from 96-well plate. Then add 100 μl of commercially drug at a concentration of 10 μM per well. After 72 hours, add the diluted WST-1 reagent to the well with 100 μl/well, and the diluted WST-1 reagent was acquired from the dilution of 9:1 medium and WST-1 stock reagent. Finally, the total volume of each well was 200 μl/well. Culture the 96-well plate at 37° C. for 30 to 90 minutes. Detecting and calculate the survival rate of each cancer cells with an ELISA reader at OD450 nm.

[2] = tested on: PC-3 (Prostate adenocarcinoma); experiment: Cell viability analysis (WST-1), prostate cancer cell line PC-3; format: cell-based; details: PC-3, 10 μM
Method: as §1, §2

[3] = tested on: MCF7 (Mammary Gland, Adenocarcinoma); experiment: Cell viability analysis (WST-1), breast cancer cell line MCF7; format: cell-based; details: Homo sapiens
Method: as §1, §2

[4] = tested on: AGS (Gastric Adenocarcinoma); experiment: Cell viability analysis (WST-1), gastric cancer cell line AGS; format: cell-based
Method: as §1, §2

[5] = tested on: HepG2 (hepatocellular carcinoma); experiment: Cell viability analysis (WST-1), hepatic cancer cell line HepG2; format: cell-based; details: Homo sapiens
Method: as §1, §2

[6] = tested on: U2OS (osteosarcoma cell line); experiment: Cell viability analysis (WST-1), osteosarcoma cell line U2OS; format: cell-based; details: Homo sapiens
Method: as §1, §2

[7] = Cell viability analysis (WST-1), human fibroblast cell line HFW; format: cell-based; details: HFW fibroblast cells (normal)
Method: as §1, §2

[8] = Cell viability analysis (WST-1), normal pulmonary epithelial cell line BEAS-2B; format: cell-based; details: human, BEAS-2B normal pulmonary epithelial cells, BEAS-2B normal cells
Description: Subculture the different types of cancer cells. The cancer cells lines includes lung cancer, gastric cancer, hepatic cancer, colon cancer, skin cancer, cervical cancer, prostate cancer, bladder cancer, breast cancer, leukemia, pancreatic cancer, ovarian cancer, tongue cancer, osteosarcoma, and renal cancer. The normal cells used in the control group included kidney cell line (HEK293) and human bronchial epithelial cell line BEAS-2B.
as §1, §2

breast cancer cell = experiment: Summary of the effect on breast cancer cell (MCF7, MDA-MB-231); format: cell-based; details: breast cancer cell (mean of MCF7 and MDA-MB-231 averages), 72 hours, read-out: Inhibitory effect
Method: as §2

colorectal cancer cell = experiment: Summary of the effect on colorectal cancer cell (HCT116-wt, LoVo); format: cell-based; details: Homo sapiens, colorectal cancer cell (mean of HCT116-wt and LoVo averages), 72 hours, read-out: Inhibitory effect
Method: as §2

pancreatic cancer cell = experiment: Summary of the effect on pancreatic cancer cell (AsPC-1, BxPC-3); format: cell-based; details: pancreatic cancer cell (mean of AsPC-1 and BxPC-3 averages), 72 hours, read-out: Inhibitory effect
Method: as §2

various cancer cells = experiment: Inhibition test on all kinds of cancer cells (overall statement); format: cell-based; details: FIG. 1
Method: as §2

[9] = Animal model test of gastric cancer: body weight and survival; format: in vivo, mice (BALB/cAnN.Cg-Foxn1nu/CrlNarl); details: for weight: individual mice A, B, C
Method: In this invention, the female mice were (BALB/cAnN.Cg-Foxn1^nu/CrlNarl) purchased from National Laboratory Animal Center (Taiwan)). The weight of the mice were 21±1 g. These mice were subcutaneously injected with gastric cancer cells (AGS) and then put these mice into different cages at random. The drug test experiment was divided into three groups, include “control group”, “low dose group (100 mg/kg/day)”, and “high dose group (200 mg/kg/day)”. These mice were then injected test drug intraperitoneally once daily […]. The tumor sizes and body weight were measured twice a week. The tumor sizes were measured and calculated by formula: (L×W^2)/2. L represents the tumor longest length. W represents the tumor shortest diameter.

[10] = 72 h, average of 4 tests, read-out: inhibition effect (survival rate of cells), average
[11] = average of 4 tests, read-out: inhibition effect (survival rate of cells), average

Structure (SMILES): Oc1ccc(OCc2ccccc2)cc1 [Monobenzone]
- viability at 10 µM [1, 10]: 87%
- viability at 10 µM ([1]; 72 hours, test T24-1-30 min, read-out: inhibition effect (survival rate of cells)): 93.5%
- viability at 10 µM ([1]; 72 hours, test T24-2-20 min, read-out: inhibition effect (survival rate of cells)): 70.4%
- viability at 10 µM ([1]; 72 hours, test T24-3-20 min, read-out: inhibition effect (survival rate of cells)): 89.4%
- viability at 10 µM ([1]; 72 hours, test T24-4-20 min, read-out: inhibition effect (survival rate of cells)): 94.7%
- viability at 10 µM [2, 10]: 62.5%
- viability at 10 µM ([2]; 72 hours, test PC-3-0524-10 min, read-out: inhibition effect (survival rate of cells)): 57%
- viability at 10 µM ([2]; 72 hours, test PC-3-0526-10 min, read-out: inhibition effect (survival rate of cells)): 70.6%
- viability at 10 µM ([2]; 72 hours, test PC-3-0529-10 min, read-out: inhibition effect (survival rate of cells)): 63.2%
- viability at 10 µM ([2]; 72 hours, test PC-3-0531-10 min, read-out: inhibition effect (survival rate of cells)): 59%
- viability at 10 µM ([3]; MCF7, 72 h, MCF7, 10 μM, average of 4 tests, read-out: inhibition effect (survival rate of cells), average): 95.7%
- viability at 10 µM ([3]; MCF7, MCF7, 10 μM, 72 hours, test 0612-10 min, read-out: inhibition effect (survival rate of cells)): 107%
- viability at 10 µM ([3]; MCF7, MCF7, 10 μM, 72 hours, test 0614-10 min, read-out: inhibition effect (survival rate of cells)): 88.8%
- viability at 10 µM ([3]; MCF7, MCF7, 10 μM, 72 hours, test 0616-10 min, read-out: inhibition effect (survival rate of cells)): 80.6%
- viability at 10 µM ([3]; MCF7, MCF7, 10 μM, 72 hours, test 0619-10 min, read-out: inhibition effect (survival rate of cells)): 106%
- viability at 10 µM [4, 10]: 68.4%
- viability at 10 µM ([4]; 72 hours, test 0510-10 min, read-out: inhibition effect (survival rate of cells)): 85.2%
- viability at 10 µM ([4]; 72 hours, test 0512-10 min, read-out: inhibition effect (survival rate of cells)): 51.3%
- viability at 10 µM ([4]; 72 hours, test 0515-10 min, read-out: inhibition effect (survival rate of cells)): 62.2%
- viability at 10 µM ([4]; 72 hours, test 0517-10 min, read-out: inhibition effect (survival rate of cells)): 74.9%
- viability at 10 µM ([5]; HepG2, 72 h, HepG2, 10 μM, average of 4 tests, read-out: inhibition effect (survival rate of cells), average): 84.7%
- viability at 10 µM ([5]; HepG2, HepG2, 10 μM, 72 hours, test 0524-20 min, read-out: inhibition effect (survival rate of cells)): 88.2%
- viability at 10 µM ([5]; HepG2, HepG2, 10 μM, 72 hours, test 0526-20 min, read-out: inhibition effect (survival rate of cells)): 85.6%
- viability at 10 µM ([5]; HepG2, HepG2, 10 μM, 72 hours, test 0529-20 min, read-out: inhibition effect (survival rate of cells)): 90.8%
- viability at 10 µM ([5]; HepG2, HepG2, 10 μM, 72 hours, test 0531-20 min, read-out: inhibition effect (survival rate of cells)): 74.3%
- viability at 10 µM [6, 10]: 72.7%
- viability at 10 µM ([6]; 72 h, osteosarcoma cell (U2OS average), read-out: Inhibitory effect): 72.7%
- viability at 10 µM ([6]; 72 hours, test 6-26-10 min, read-out: inhibition effect (survival rate of cells)): 69.3%
- viability at 10 µM ([6]; 72 hours, test 6-28-10 min, read-out: inhibition effect (survival rate of cells)): 66.7%
- viability at 10 µM ([6]; 72 hours, test 6-30-10 min, read-out: inhibition effect (survival rate of cells)): 73%
- viability at 10 µM ([6]; 72 hours, test 7-3-10 min, read-out: inhibition effect (survival rate of cells)): 81.7%
- viability at 72 h, 10 µM [7, 11]: 85.4%
- viability at 72 h, 10 µM ([7]; test 0612-10 min, read-out: inhibition effect (survival rate of cells)): 120%
- viability at 72 h, 10 µM ([7]; test 0614-10 min, read-out: inhibition effect (survival rate of cells)): 74.9%
- viability at 72 h, 10 µM ([7]; test 0616-10 min, read-out: inhibition effect (survival rate of cells)): 68.1%
- viability at 72 h, 10 µM ([7]; test 0619-10 min, read-out: inhibition effect (survival rate of cells)): 79.1%
- viability at 72 h, 10 µM [8, 11]: 73.8%
- viability at 72 h, 10 µM ([8]; test 0510-10 min, read-out: inhibition effect (survival rate of cells)): 84.7%
- viability at 72 h, 10 µM ([8]; test 0512-10 min, read-out: inhibition effect (survival rate of cells)): 79.5%
- viability at 72 h, 10 µM ([8]; test 0515-10 min, read-out: inhibition effect (survival rate of cells)): 74.9%
- viability at 72 h, 10 µM ([8]; test 0517-10 min, read-out: inhibition effect (survival rate of cells)): 56.2%
- viability at 10 µM (breast cancer cell): 87.9%
- viability at 10 µM (colorectal cancer cell): 89%
- viability at 10 µM (pancreatic cancer cell): 86.8%
- inhibitory effect and specificity on various cancer cells (in words) (various cancer cells): significant inhibitory effect and specificity on various cancer cells
- health status / death of tested mice during the treatment (in words) ([9]; both high and low doses): healthy status during the treatment without death
- weight of mice during the experiment (in words) ([9]; both low dose and high dose, FIG. 2): did not show a significant decrease
- weight ([9]; high dose (200 mg/kg/day) i.p. once daily, Fifth measurement, 200 mg/kg/day): 20 g (2×) and 21 g
- weight ([9]; high dose (200 mg/kg/day) i.p. once daily, First measurement, 200 mg/kg/day): 20 g (2×) and 19.5 g
- weight ([9]; high dose (200 mg/kg/day) i.p. once daily, Fourth measurement, 200 mg/kg/day): 20 g (2×) and 21 g
- weight ([9]; high dose (200 mg/kg/day) i.p. once daily, Second measurement, 200 mg/kg/day): 19 g (2×) and 20 g
- weight ([9]; high dose (200 mg/kg/day) i.p. once daily, Third measurement, 200 mg/kg/day): 20.5 g and 19 g and 20 g
- weight ([9]; low dose (100 mg/kg/day) i.p. once daily, Fifth measurement, 100 mg/kg/day): 20 g (2×) and 21 g
- weight ([9]; low dose (100 mg/kg/day) i.p. once daily, First measurement): 21 g
- weight ([9]; low dose (100 mg/kg/day) i.p. once daily, Fourth measurement, 100 mg/kg/day): 20 g (2×) and 21 g
- weight ([9]; low dose (100 mg/kg/day) i.p. once daily, Second measurement, 100 mg/kg/day): 20 g (2×) and 19 g
- weight ([9]; low dose (100 mg/kg/day) i.p. once daily, Third measurement, 100 mg/kg/day): 19.5 g and 19 g and 18.5 g
